Assay results as given in ChEMBL document CHEMBL1201862, “PubChem BioAssay data set” (2004).
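Test compounds were applied to cells in 96-well plates for 48 hours at 5 doses. GI50: concentration for 50% inhibition of growth.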 Activity calls are given as the source filed them. Cut-off read from the data, not from the text of the source: active = GI50 up to about 1.1 µM and inactive = higher. Where a SMILES comes first, the peptide text is derived from it. [ ]: non-standard residue; d: D form. The star is where a group is joined. Hyp = O=C(O)[CH]1C[CH](O)CN1; Cbz = O=C(OCc1ccccc1)*

Key:
Experiment in all cases: NCI tumour cell line growth inhibition, 48 h
SK-OV-3 = system: SK-OV-3
SR = system: SR
LOX IMVI = system: LOX IMVI
KM12 = system: KM12
DU-145 = system: DU-145
HT-29 = system: HT-29
HL-60 = system: HL-60
MOLT-4 = system: MOLT-4
SK-MEL-5 = system: SK-MEL-5
EKVX = system: EKVX
OVCAR-4 = system: OVCAR-4
K562 = system: K562
ACHN = system: ACHN
OVCAR-8 = system: OVCAR-8
MDA-N = system: MDA-N
TK-10 = system: TK-10
HCT-15 = system: HCT-15
OVCAR-3 = system: OVCAR-3
CCRF-CEM = system: CCRF-CEM
SF-295 = system: SF-295

With `NC(=O)CNC(=O)C1CC(O)CN1C(=O)C1CCCN1C(=O)OCc1ccccc1` (stereo not drawn) (Cbz-Pro-[Hyp]-Gly-NH2; configuration not given here) the GI50 (SK-OV-3) was > 100 µM (inactive), the GI50 (SR) was > 100 µM (inactive) and the GI50 (LOX IMVI) was > 100 µM (inactive). For the same molecule, the GI50 (KM12) was > 100 µM (inactive), the GI50 (DU-145) was > 100 µM (inactive) and the GI50 (HT-29) was > 100 µM (inactive). The GI50 (HL-60) was > 100 µM (inactive), the GI50 (MOLT-4) was > 100 µM (inactive) and the GI50 (SK-MEL-5) was > 100 µM (inactive). For the same molecule, the GI50 (EKVX) was > 100 µM (inactive), the GI50 (OVCAR-4) was > 100 µM (inactive) and the GI50 (K562) was > 100 µM (inactive). For the same molecule, the GI50 (ACHN) was > 100 µM (inactive), the GI50 (OVCAR-8) was > 100 µM (inactive) and the GI50 (MDA-N) was > 100 µM (inactive). For the same molecule, the GI50 (TK-10) was > 100 µM (inactive), the GI50 (HCT-15) was > 100 µM and the GI50 (OVCAR-3) was > 100 µM (inactive). For the same molecule, the GI50 (CCRF-CEM) was > 100 µM (inactive) and the GI50 (SF-295) was > 100 µM (inactive).
